# Reference: patent US20060264388A1, “Method for treating liver cancer by intrahepatic administration of nemorubicin” (priority 2003, published 2006)
# How the values were obtained:
# [1] = test system: liver metastases from M5076 murine fibrosarcoma; conditions: cited from earlier work
# [2] = test system: liver metastases from M5076 murine; conditions: M5076 murine reticulosarcoma; cited from earlier work
# [3] = test system: liver metastases in colorectal and renal cancer patients; conditions: i.v., cited from earlier work
# [4] = test system: tumor cells; conditions: mouse, rat and human liver microsomes; cited from earlier work
# [5] = test system: murine leukemias, solid murine and human tumor models; conditions: cited from earlier work
# [6] = test system: human liver tumor; assay: Efficacy: tumor response, intrahepatic artery nemorubicin q8wk vs q6wk; assay type: in vivo
# Protocol: (§1) The objective of the study was to shorten the time interval between treatment administrations from every 8 weeks (q8wk) of the protocol as reported in WO 00/15203 to every 6 weeks (q6wk). This was done in the attempt of improving the therapeutic potential of nemorubicin treatment through an increase of the dose intensity of the therapy, simultaneously safeguarding patient safety.
# (§2) Overall, 13 patients were treated with the q8wk schedule (total 25 cycles administered; doses ranged from 200 to 800 mcg/m^2), and 11 patients were treated with the q6wk schedule (total 32 cycles administered; doses were 200 and 600 mcg/m^2).
# [7] = test system: patients with liver cancer; assay: Liver toxicity (SGOT, SGPT, Total Bilirubin), worst CTC Grade by cycle, intrahepatic artery nemorubicin q8wk vs q6wk; assay type: in vivo, human
# Protocol: as §1, §2
# The NCI-Common Tosicity Criteria grading system (CTC Grade), Version 2.0, was used to report toxicities.
# [8] = 200 mcg/m^2 q6wk, 12 evaluable cycles
# [9] = 200 mcg/m^2 q8wk, 5 evaluable cycles
# [10] = 400 mcg/m^2 q8wk, 4 evaluable cycles
# [11] = 600 mcg/m^2 q6wk, 17 evaluable cycles
# [12] = 600 mcg/m^2 q6wk, 18 evaluable cycles
smiles,measurement,setting,value
"COc1cccc2c1C(=O)c1c(O)c3c(c(O)c1C2=O)C[C@@](O)(C(=O)CO)C[C@@H]3O[C@H]1C[C@H](N2CCO[C@H](OC)C2)[C@H](O)[C@H](C)O1.Cl [nemorubicin, 3′desamino-3′[2(S)methoxy-4-morpholinyl]doxorubicin-hydrochloride]",efficacy on liver metastases versus solid primary,[1]; administered orally,more effective on the liver metastases than on the solid primary
same,efficacy relative to oral formulation,[1]; injectable formulation,less effective
same,best result on survival,"[1]; oral formulation, administered daily for 5 days",doubling of survival time
same,"activity against liver metastases, oral versus i.v.",[2],higher after oral administration as compared to the i.v. route
same,principle toxicities,[3],"nausea and vomiting (requiring intravenous antiemetic treatment), myelosuppression and transient elevations in transaminases"
same,antitumor effect observed,"[3]; tumor shrinkage at doses of 1250 and 1500 mcg/m^2, 197 patients",regressions of liver metastases were repeatedly observed
same,cytotoxic activity in vitro in the presence of liver microsomes,[4],increased
same,antitumor activity,"[5]; after i.p., i.v. or oral administration, murine leukemias, solid murine and human tumor models",good antitumor activity
same,"effective oral doses, fold higher than the effective i.v. doses","[5]; animal tumor models, oral vs i.v.",1.3-2 fold
same,"optimal i.v. dose, fold less than that of doxorubicin","[5]; in vivo, i.v.",at least 80 fold
same,lesion area reduction versus baseline,"[6]; 200 mcg/m^2 q6wk, one patient AJCC stage II (confirmed PR), CT scan 5 weeks after going off study",70%
same,tumor shrinkage versus baseline,"[6]; 200 mcg/m^2 q6wk, one patient AJCC stage II (confirmed PR), after 2 cycles",64%
same,duration of PR in the original lesion (right lobe),"[6]; 200 mcg/m^2 q8wk, one patient AJCC stage II (unconfirmed PR)",≥ 12 months
same,decrease in tumor area versus baseline,"[6]; 200 mcg/m^2 q8wk, one patient AJCC stage II (unconfirmed PR), after 2 cycles",85.9%
same,shrinkage of measurable lesion versus baseline,"[6]; 200 mcg/m^2 q8wk, one patient AJCC stage III (confirmed PR), after 1 cycle",78.45%
same,lesion area reduction versus baseline,"[6]; 200 mcg/m^2 q8wk, one patient AJCC stage III (confirmed PR), second cycle",95.3%
same,duration of PR,"[6]; 600 mcg/m^2 q6wk, one patient AJCC stage III (confirmed PR), 5 cycles",≥ 8 months
same,reduction of measurable lesion area versus baseline,"[6]; 600 mcg/m^2 q6wk, one patient AJCC stage III (confirmed PR), cycle 3",78.2%
same,reduction of the measurable lesion area,"[6]; 600 mcg/m^2 q6wk, one patient AJCC stage III (confirmed PR), first treatment cycle",48.4%
same,duration of PR in the original lesion (right lobe),"[6]; 600 mcg/m^2 q8wk, one patient stage III (unconfirmed PR)",about 3 months
same,decrease of lesion area versus baseline,"[6]; 600 mcg/m^2 q8wk, one patient stage III (unconfirmed PR), after one cycle",54.3%
same,"decrease in tumor area versus baseline, perfused right lobe","[6]; 600 mcg/m^2 q8wk, one patient stage III (unconfirmed PR), cycle 2",68.2%
same,decrease of the tumor area versus baseline,"[6]; 800 mcg/m^2 q8wk, one patient AJCC stage III (unconfirmed PR), after 3 cycles",52%
same,confirmed PR out of treated patients,[6]; q6wk schedule,two confirmed PR out of 11 treated patients
same,confirmed PR out of treated patients,[6]; q8wk schedule,one confirmed PR out of 13 treated patients
same,"SGOT, worst CTC Grade by cycle (increased of at least one Grade versus baseline Grade): All Grades (%)",[7]; [8],9 (75%) (%)
same,"SGOT, worst CTC Grade by cycle (increased of at least one Grade versus baseline Grade): Grade 1-2 (%)",[7]; [8],8 (67%) (%)
same,"SGOT, worst CTC Grade by cycle (increased of at least one Grade versus baseline Grade): Grade 3-4 (%)",[7]; [8],1 (8%) (%)
same,"SGPT, worst CTC Grade by cycle (increased of at least one Grade versus baseline Grade): All Grades (%)",[7]; [8],7 (58%) (%)
same,"SGPT, worst CTC Grade by cycle (increased of at least one Grade versus baseline Grade): Grade 1-2 (%)",[7]; [8],7 (58%) (%)
same,"Total Bilirubin, worst CTC Grade by cycle (increased of at least one Grade versus baseline Grade): All Grades (%)",[7]; [8],10 (83%) (%)
same,"Total Bilirubin, worst CTC Grade by cycle (increased of at least one Grade versus baseline Grade): Grade 1-2 (%)",[7]; [8],10 (83%) (%)
same,"SGOT, worst CTC Grade by cycle (increased of at least one Grade versus baseline Grade): All Grades (%)",[7]; [9],3 (60%) (%)
same,"SGOT, worst CTC Grade by cycle (increased of at least one Grade versus baseline Grade): Grade 1-2 (%)",[7]; [9],3 (60%) (%)
same,"SGPT, worst CTC Grade by cycle (increased of at least one Grade versus baseline Grade): All Grades (%)",[7]; [9],4 (80%) (%)
same,"SGPT, worst CTC Grade by cycle (increased of at least one Grade versus baseline Grade): Grade 1-2 (%)",[7]; [9],4 (80%) (%)
same,"Total Bilirubin, worst CTC Grade by cycle (increased of at least one Grade versus baseline Grade): All Grades (%)",[7]; [9],5 (100%) (%)
same,"Total Bilirubin, worst CTC Grade by cycle (increased of at least one Grade versus baseline Grade): Grade 1-2 (%)",[7]; [9],5 (100%) (%)
same,"SGOT, worst CTC Grade by cycle (increased of at least one Grade versus baseline Grade): All Grades (%)",[7]; [10],4 (100%) (%)
same,"SGOT, worst CTC Grade by cycle (increased of at least one Grade versus baseline Grade): Grade 1-2 (%)",[7]; [10],1 (25%) (%)
same,"SGOT, worst CTC Grade by cycle (increased of at least one Grade versus baseline Grade): Grade 3-4 (%)",[7]; [10],3 (75%) (%)
same,"SGPT, worst CTC Grade by cycle (increased of at least one Grade versus baseline Grade): All Grades (%)",[7]; [10],3 (75%) (%)
same,"SGPT, worst CTC Grade by cycle (increased of at least one Grade versus baseline Grade): Grade 1-2 (%)",[7]; [10],2 (50%) (%)
same,"SGPT, worst CTC Grade by cycle (increased of at least one Grade versus baseline Grade): Grade 3-4 (%)",[7]; [10],1 (25%) (%)
same,"Total Bilirubin, worst CTC Grade by cycle (increased of at least one Grade versus baseline Grade): All Grades (%)",[7]; [10],2 (50%) (%)
same,"Total Bilirubin, worst CTC Grade by cycle (increased of at least one Grade versus baseline Grade): Grade 1-2 (%)",[7]; [10],2 (50%) (%)
same,"SGOT, worst CTC Grade by cycle (increased of at least one Grade versus baseline Grade): All Grades (%)",[7]; [11],16 (94%) (%)
same,"SGOT, worst CTC Grade by cycle (increased of at least one Grade versus baseline Grade): Grade 1-2 (%)",[7]; [11],14 (82%) (%)
same,"SGOT, worst CTC Grade by cycle (increased of at least one Grade versus baseline Grade): Grade 3-4 (%)",[7]; [11],2 (12%) (%)
same,"SGPT, worst CTC Grade by cycle (increased of at least one Grade versus baseline Grade): All Grades (%)",[7]; [12],16 (89%) (%)
same,"SGPT, worst CTC Grade by cycle (increased of at least one Grade versus baseline Grade): Grade 1-2 (%)",[7]; [12],14 (78%) (%)
same,"SGPT, worst CTC Grade by cycle (increased of at least one Grade versus baseline Grade): Grade 3-4 (%)",[7]; [12],2 (11%) (%)
same,"Total Bilirubin, worst CTC Grade by cycle (increased of at least one Grade versus baseline Grade): All Grades (%)",[7]; [12],14 (77%) (%)
same,"Total Bilirubin, worst CTC Grade by cycle (increased of at least one Grade versus baseline Grade): Grade 1-2 (%)",[7]; [12],13 (72%) (%)
